The text below walks through data of ChEMBL document CHEMBL1201862, “PubChem BioAssay data set” (2004).

Values joined by “and” are separate entries in the source; they are usually repeats but may differ in a detail not shown here. Identical values can stand only once.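 Each compound was tested at five concentrations against cells in 96-well plates for 48 hours. GI50 = concentration required for 50% inhibition of growth.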 Active and inactive are the calls of the source. Cut-off read from the data, not from the text of the source: active = GI50 up to about 1.1 µM and inactive = higher.

Among the test systems are IGROV-1; K562; UACC-257; HL-60; M14; 786-0; CCRF-CEM; SF-539; HCT-15; MCF7; SW-620; U-251; LOX IMVI; RXF 393; KM12; NCI-H23; OVCAR-4; SF-295; HOP-62.
Holding throughout (test): NCI-60 cell line screen, 48 h

`CNC(C#N)c1ccc(OC)cc1` (centres undefined): the GI50 was > 100 µM (inactive) in the test with IGROV-1; 34.1 µM (inactive) in the test on K562; 54.8 µM (inactive) in the test on UACC-257; 28.6 µM (inactive) in the test on HL-60; > 100 µM (inactive) in the test on M14; > 100 µM (inactive) in the test on 786-0. For the same compound, the GI50 was 53.3 µM (inactive) in the test on CCRF-CEM; > 100 µM (inactive) with SF-539; above 100 µM with HCT-15; > 100 µM (inactive) in the test with MCF7; 94.2 µM (inactive) with SW-620; 53.3 µM (inactive) in the test with U-251. Further, the GI50 with LOX IMVI was > 100 µM (inactive); with RXF 393, > 100 µM (inactive); in the test on KM12, 78.9 µM (inactive); in the test with NCI-H23, > 100 µM (inactive); in the test with OVCAR-4, > 100 µM (inactive); in the test on SF-295 it was > 100 µM (inactive).
In the case of `Cc1c2ccccc2c(C)n2c1nc1ccccc12`, the GI50 is 11.6 µM (inactive) with IGROV-1; 4.1 µM (inactive) with K562; 14.2 µM (inactive) with UACC-257; 10 µM (inactive) with HOP-62; 83 µM (inactive) in the test on HL-60; 9.35 µM (inactive) in the test on M14. The GI50 in the test with 786-0 is 4.68 µM (inactive); with CCRF-CEM, 5.06 µM (inactive); in the test with SF-539, 4.56 µM (inactive); in the test on HCT-15 it was 4.54 µM; in the test with MCF7, 2.24 µM (inactive); in the test on SW-620 it was 3.73 µM (inactive). The GI50 is 5.6 µM (inactive) in the test on U-251; 9.44 µM (inactive) with RXF 393; 7.53 µM (inactive) with KM12; 6.93 µM (inactive) in the test with NCI-H23; 4.93 µM (inactive) with SF-295.
In the case of `O=C1CC(C(OCc2ccccc2)C(OCc2ccccc2)C(COCc2ccccc2)OCc2ccccc2)CC(=O)N1` (centres undefined), the GI50 was > 100 µM (inactive) in the test on IGROV-1; > 100 µM (inactive) in the test with UACC-257; > 100 µM (inactive) in the test on HL-60; > 75 µM (inactive) with M14; > 75 µM (inactive) with 786-0; > 100 µM (inactive) in the test with SF-539. Also, the GI50 in the test with HCT-15 was above 75 µM; with MCF7, > 100 µM (inactive) and 51.9 µM (inactive); in the test with SW-620 it was > 100 µM (inactive); in the test on LOX IMVI, > 75 µM (inactive); in the test with RXF 393, 42.9 µM (inactive) and 29.6 µM (inactive); with NCI-H23, > 75 µM (inactive). The GI50 with OVCAR-4 and with SF-295 was > 75 µM (inactive) each time.
For the compound `CC(C)(C)n1nc(C2CC2)cc1NC(=O)Nc1ccc(Cl)cc1`, the GI50 with IGROV-1, in the test with K562, with UACC-257, in the test with HOP-62, in the test with HL-60 and in the test on M14 was > 100 µM (inactive) throughout. The GI50 in the test with 786-0 was > 100 µM (inactive); in the test with SF-539, > 100 µM (inactive); in the test on HCT-15 it was above 100 µM; in the test with MCF7, > 100 µM (inactive); in the test with SW-620, > 100 µM (inactive); in the test on U-251, > 100 µM (inactive). Moreover, the GI50 with LOX IMVI, in the test on RXF 393, with KM12, with NCI-H23, in the test on OVCAR-4 and with SF-295 was > 100 µM (inactive) each time.
As to `O=C1NC(N2CCCCC2)=N/C1=C\c1ccc(Cl)cc1`, the GI50 in the test on IGROV-1 is 25.9 µM (inactive); with UACC-257, 36.6 µM (inactive); in the test on HOP-62, 46.7 µM (inactive); in the test on HL-60 it was > 100 µM (inactive); in the test on M14 it was 66.8 µM (inactive); in the test on 786-0, 28.7 µM (inactive). The GI50 with CCRF-CEM was 39.7 µM (inactive); in the test on SF-539, 94 µM (inactive); in the test with HCT-15 it was 43.1 µM; in the test with MCF7, 47.2 µM (inactive); in the test with SW-620, 68.4 µM (inactive); in the test with U-251 it was 44.5 µM (inactive). The GI50 is 34.5 µM (inactive) in the test on LOX IMVI; > 100 µM (inactive) with RXF 393; 25.1 µM (inactive) in the test on KM12; 37.2 µM (inactive) in the test with NCI-H23; 68.4 µM (inactive) with OVCAR-4; 60.5 µM (inactive) in the test with SF-295.
Consider `C=C1c2nc3ccccc3n2C=C(c2ccc(Cl)cc2)N1c1ccccc1`, for which the GI50 is 7.73 µM (inactive) in the test on IGROV-1; 40.6 µM (inactive) with K562; 18.7 µM (inactive) in the test with UACC-257; 41.1 µM (inactive) with HL-60; 16.3 µM (inactive) in the test with M14; 13.3 µM (inactive) in the test on 786-0. For the same compound, the GI50 in the test with CCRF-CEM was > 100 µM (inactive); in the test with SF-539 it was 13.2 µM (inactive); with HCT-15 it was 12.1 µM; in the test on MCF7, 13 µM (inactive); in the test on SW-620, 25.3 µM (inactive); with U-251, 18.7 µM (inactive). The GI50 in the test with LOX IMVI was 33.7 µM (inactive); with RXF 393, 16.1 µM (inactive); with KM12, 12.3 µM (inactive); in the test on NCI-H23, 11.7 µM (inactive); in the test with OVCAR-4 it was 10.5 µM (inactive); in the test with SF-295, 11.7 µM (inactive).
With `CSc1ncc2c(n1)-c1ccccc1OC2N1CCOCC1` (centres undefined), the GI50 with IGROV-1 is 39.4 µM (inactive); in the test with K562 it was 56.1 µM (inactive); in the test with UACC-257, 81.8 µM (inactive); in the test with HL-60, 27.3 µM (inactive); with M14, > 100 µM (inactive); in the test on 786-0, 75.7 µM (inactive). Further, the GI50 with CCRF-CEM was 47.1 µM (inactive); with SF-539 it was > 100 µM (inactive); in the test with HCT-15 it was 53.7 µM; with MCF7, 55.8 µM (inactive); in the test on SW-620, > 100 µM (inactive); in the test on U-251 it was > 100 µM (inactive). Further, the GI50 in the test with LOX IMVI was 65.5 µM (inactive); in the test on RXF 393 it was 53.8 µM (inactive); in the test on KM12, 53.3 µM (inactive); in the test on NCI-H23, > 100 µM (inactive); in the test with OVCAR-4 it was 21.7 µM (inactive); with SF-295, 49.7 µM (inactive).
On to `Cc1[nH]c2ncn3[nH]c(=S)nc3c2c1Cc1ccccc1`, for which the GI50 in the test on IGROV-1 was 48.1 µM (inactive); in the test with UACC-257, > 100 µM (inactive); with HOP-62, > 100 µM (inactive); with HL-60, > 100 µM (inactive); with M14, > 100 µM (inactive); with 786-0, > 100 µM (inactive). Besides, the GI50 with CCRF-CEM is 76.4 µM (inactive); in the test with SF-539, > 100 µM (inactive); in the test on HCT-15 it was above 100 µM; in the test with MCF7, 52.6 µM (inactive); in the test with SW-620, > 100 µM (inactive); in the test on U-251 it was > 100 µM (inactive). In addition, the GI50 in the test on RXF 393 is 26.5 µM (inactive); in the test on KM12 it was > 100 µM (inactive); in the test with NCI-H23, > 100 µM (inactive); in the test on OVCAR-4, > 100 µM (inactive); in the test with SF-295, > 100 µM (inactive).
On to `CN(C)C1(C(=O)O)CC1`, for which the GI50 with IGROV-1, in the test on K562, in the test on UACC-257, in the test with HOP-62, in the test on HL-60 and in the test on M14 was > 100 µM (inactive) throughout. Also, the GI50 in the test on 786-0 was > 100 µM (inactive); in the test with CCRF-CEM, > 100 µM (inactive); in the test on SF-539 it was > 100 µM (inactive); in the test with HCT-15, above 100 µM; in the test on MCF7, > 100 µM (inactive); in the test on SW-620, > 100 µM (inactive). Moreover, the GI50 in the test with U-251, in the test with LOX IMVI, in the test with RXF 393, in the test with NCI-H23, in the test on OVCAR-4 and with SF-295 was > 100 µM (inactive) in each case.
Turning to `CC(=O)O[C@H]1CC[C@@]2(C)C(=C[C@H](c3ccc(O)cc3)[C@H]3[C@@H]4CC[C@H](OC(C)=O)[C@@]4(C)CC[C@@H]32)C1`, the GI50 in the test on K562 is 12.9 µM (inactive); in the test with UACC-257 it was 22 µM (inactive); in the test on HOP-62 it was 19.1 µM (inactive); with HL-60 it was 19.6 µM (inactive); in the test with M14, 19 µM (inactive); in the test on 786-0, 19.6 µM (inactive). The GI50 is 21.3 µM (inactive) with CCRF-CEM; 21 µM (inactive) with SF-539; 12.3 µM in the test with HCT-15; 23 µM (inactive) with MCF7; 22 µM (inactive) in the test on SW-620; 22.1 µM (inactive) with U-251. Moreover, the GI50 in the test on LOX IMVI is 14.1 µM (inactive); in the test on RXF 393 it was 22.5 µM (inactive); in the test with KM12, 16.6 µM (inactive); with NCI-H23 it was 19.8 µM (inactive); in the test on OVCAR-4 it was 15.4 µM (inactive); with SF-295, 29 µM (inactive).
Turning to `CCCCSC1=N/C(=C\c2ccccc2O)C(Cl)=N1`, the GI50 with IGROV-1, in the test with UACC-257, in the test with HOP-62, with HL-60, in the test with M14 and in the test on 786-0 was > 100 µM (inactive) each time. The GI50 with SF-539 was > 100 µM (inactive); in the test with HCT-15, above 100 µM; with MCF7 it was > 100 µM (inactive); in the test on SW-620 it was > 100 µM (inactive); in the test on U-251, > 100 µM (inactive); in the test with LOX IMVI it was > 100 µM (inactive). Further, the GI50 with RXF 393, in the test on KM12, in the test on NCI-H23, with OVCAR-4 and in the test with SF-295 was > 100 µM (inactive) throughout.
On to `COc1cc2c(NCCN(C)C)nc3c4cc5c(cc4ccc3c2cc1OC)OCO5`, for which the GI50 is 2.8 µM (inactive) in the test on IGROV-1; 3.23 µM (inactive) in the test with K562; 4.1 µM (inactive) with UACC-257; 3.54 µM (inactive) in the test with HOP-62; 4.23 µM (inactive) with HL-60; 4.03 µM (inactive) in the test on M14. Also, the GI50 is 2.95 µM (inactive) in the test on 786-0; 1.32 µM (inactive) with CCRF-CEM; 4.06 µM (inactive) in the test with SF-539; 2.94 µM with HCT-15; 1.84 µM (inactive) with MCF7; 3.36 µM (inactive) in the test on SW-620. The GI50 is 4.16 µM (inactive) with U-251; 3.16 µM (inactive) in the test with RXF 393; 4.18 µM (inactive) with KM12; 3.08 µM (inactive) with NCI-H23; 3.96 µM (inactive) with OVCAR-4; 2.58 µM (inactive) in the test with SF-295.
